Results published in PubChem BioAssay AID687005 (Broad Institute, 2013).
Inconclusive results are not listed. Activity calls are given as the source filed them.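 How the source made its calls: active means Compounds that reduce signal, with fitted half-maximal dose at or under twice the top valid tested dose; inconclusive means Poor fit, or flat curve losing 30 to 70% of signal; inactive means Potency past limit, flat within 30%, or opposite direction.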

Assay: viability loss in HEK293T cells – cell-based, ATP luminescence, cherry-pick samples, cytotoxicity control, dose response (AID 687005)
Settings: HEK293T viability, ATP luminescence (CellTiter-Glo), 48 h

## Cc1noc(C)c1NC(=O)Nc1ccc2c(c1)C(=O)N([C@@H](C)CO)C[C@H](C)[C@H](CN(C)S(=O)(=O)c1ccc(Cl)cc1)O2
At 26 µM (top of the series)
  activity change, negative = cytotoxicity: 8.28% (inactive)

## COc1cccc(S(=O)(=O)N(C)C[C@@H]2Oc3ncc(-c4cccc(F)c4)cc3C(=O)N([C@H](C)CO)C[C@@H]2C)c1
At 26 µM (top of the series)
  activity change, negative = cytotoxicity: -18.4% (inactive)

## CO[C@H](CN(C)Cc1cc(F)ccc1F)[C@@H](C)CN([C@@H](C)CO)S(=O)(=O)c1ccc(F)cc1
At 26 µM (top of the series)
  activity change, negative = cytotoxicity: 14.8% (inactive)

## CCCCN1C(=S)NC[C@@H]1Cc1ccccc1
At 26 µM (top of the series)
  activity change, negative = cytotoxicity: 6.24% (inactive)

## C[C@@H]1CCCCO[C@@H](CN(C)C(=O)CCCN(C)C)[C@@H](C)CN([C@H](C)CO)C(=O)c2cc(NC(=O)Cc3ccccc3)ccc2O1
At 26 µM (top of the series)
  activity change, negative = cytotoxicity: 13.4% (inactive)

## C[C@H](CO)N1C[C@H](C)[C@@H](CN(C)CC2CCOCC2)Oc2ncc(C#Cc3ccc(F)cc3)cc2C1=O
At 26 µM (top of the series)
  activity change, negative = cytotoxicity: -11.1% (inactive)

## COc1ccccc1CNC(=O)COc1ccc2c(c1)CCC2
At 26 µM (top of the series)
  activity change, negative = cytotoxicity: 28.6% (inactive)

## COCC(=O)N1[C@H](C#N)[C@H](c2ccc(C#Cc3ccccc3F)cc2)[C@H]1CO
At 26 µM (top of the series)
  activity change, negative = cytotoxicity: 8.29% (inactive)

## CNC[C@H]1Oc2ccc(NC(=O)Cc3cn(C)c4ccccc34)cc2CC(=O)N([C@@H](C)CO)C[C@H]1C
At 26 µM (top of the series)
  activity change, negative = cytotoxicity: 27% (inactive)

## C[C@H](CO)N1C[C@H](C)[C@@H](CN(C)S(=O)(=O)c2ccc(Cl)cc2)Oc2c(NS(=O)(=O)c3ccc(F)cc3)cccc2C1=O
At 23.5 µM (top of the series)
  activity change, negative = cytotoxicity: -1.86% (inactive)

## COCC(=O)NC[C@H]1N[C@H](CO)[C@@H]1c1ccc(C2=CCCC2)cc1
At 26 µM (top of the series)
  activity change, negative = cytotoxicity: 16.1% (inactive)

## Cc1cccc(NC(=O)C2NC(=O)CC2c2ccccc2)c1C (stereo not given)
At 26 µM (top of the series)
  activity change, negative = cytotoxicity: 8.03% (inactive)

## CO[C@H](CN(C)Cc1ccc2c(c1)OCO2)[C@@H](C)CN(C(=O)c1ccccc1)[C@@H](C)CO
At 26 µM (top of the series)
  activity change, negative = cytotoxicity: -12.9% (inactive)

## CCCNC(=O)C[C@H]1C[C@H]2c3cc(NC(=O)Nc4ccc(OC)cc4)ccc3O[C@H]2[C@@H](CO)O1
At 26 µM (top of the series)
  activity change, negative = cytotoxicity: -21% (inactive)

## Cc1noc(C)c1NC(=O)N(C)C[C@H]1Oc2ccc(N(C)C)cc2C(=O)N([C@H](C)CO)C[C@@H]1C
At 26 µM (top of the series)
  activity change, negative = cytotoxicity: -11.8% (inactive)

## Cc1ccccc1OCC(=O)NC(C)c1ccccc1 (stereo not given)
At 26 µM (top of the series)
  activity change, negative = cytotoxicity: -29.9% (inactive)

## CCC(C)(C(=O)NC1CCCCC1)N(C(=O)C1CCC(=O)N1)c1ccccc1 (stereo not given)
At 26 µM (top of the series)
  activity change, negative = cytotoxicity: 0.147% (inactive)

## CCCN1C[C@H](C)[C@@H](OC)CN(C)C(=O)c2cc(NC(=O)c3cccc(F)c3)ccc2OC[C@H]1C
At 26 µM (top of the series)
  activity change, negative = cytotoxicity: 10.2% (inactive)

## Cc1cccc(C)c1NC(=O)C(C)N1CCCCC1 (stereo not given)
At 26 µM (top of the series)
  activity change, negative = cytotoxicity: 6.43% (inactive)

## C[C@H](CO)N1C[C@H](C)[C@@H](CN(C)C(=O)c2ccncc2)OCCCC[C@H](C)Oc2ccc(NC(=O)Cc3ccccc3)cc2C1=O
At 23.5 µM (top of the series)
  activity change, negative = cytotoxicity: -0.45% (inactive)

## N#Cc1ccc(C23CC4(C2)[C@H](CN(Cc2ccc(-c5ccccc5)cc2)[C@@H]4c2ccccc2)C3c2ccc(C(F)(F)F)cc2)cc1 (stereo not given in full)
At 26 µM (top of the series)
  activity change, negative = cytotoxicity: -11.2% (inactive)

## COCC(=O)Nc1ccc2c(c1)OC[C@@H](C)N(C(=O)Cc1cccnc1)C[C@H](C)[C@@H](OC)CN(C)C2=O
At 26 µM (top of the series)
  activity change, negative = cytotoxicity: -14.6% (inactive)

## Cc1ccc(OCC(=O)NCc2ccccc2)cc1
At 50 µM (top of the series)
  activity change, negative = cytotoxicity: 29% (inactive)

## Cc1ccc(N(C(=O)C2CCC(=O)N2)C2(C(=O)NC3CCCC3)CCCCC2)cc1 (stereo not given)
At 26 µM (top of the series)
  activity change, negative = cytotoxicity: -43.5% (inactive)

## CN1C(=O)c2cc(NS(C)(=O)=O)ccc2OC[C@@H]2O[C@@H](CC(=O)O)CC[C@@H]21
At 23.5 µM (top of the series)
  activity change, negative = cytotoxicity: -2.71% (inactive)

## Cc1ccc(NC(=O)C2(C)CCN2C(=O)CCC2CCCC2)cc1C (stereo not given)
At 35 µM (top of the series)
  activity change, negative = cytotoxicity: -23.2% (inactive)

## O=C(c1cccnc1)N1C[C@H]2[C@@H](c3ccccc31)[C@@H](CO)N2C(=O)Nc1ccc(F)cc1
At 26 µM (top of the series)
  activity change, negative = cytotoxicity: -19.7% (inactive)

## C[C@H]1CN([C@@H](C)CO)C(=O)Cc2cc(NC(=O)C3CC3)ccc2O[C@H]1CN(C)Cc1ccc(-c2ccccc2)cc1
At 23.5 µM (top of the series)
  activity change, negative = cytotoxicity: -24.1% (inactive)

## CC(=O)N1[C@@H](CO)[C@H](c2ccc(-c3ccccc3)cc2)[C@@H]1CNC(=O)C1CC1
At 26 µM (top of the series)
  activity change, negative = cytotoxicity: 13.9% (inactive)

## CC(C)NC(=O)Nc1ccc2c(c1)CC(=O)N([C@H](C)CO)C[C@H](C)[C@H](CN(C)S(=O)(=O)c1ccc(Cl)cc1)O2
At 23.5 µM (top of the series)
  activity change, negative = cytotoxicity: 39.4% (inactive)

## CC(=O)N(C)C[C@H]1Oc2cc(C#Cc3ccc(F)cc3)ccc2S(=O)(=O)N([C@H](C)CO)C[C@@H]1C
At 26 µM (top of the series)
  activity change, negative = cytotoxicity: 53% (inactive)

## COc1ccccc1NC(=O)N[C@@H]1CC[C@H](CCn2cc(-c3ccccc3OC)nn2)O[C@H]1CO
At 26 µM (top of the series)
  activity change, negative = cytotoxicity: -11.8% (inactive)

## COc1ccccc1-c1ccc2c(c1)O[C@@H](CN(C)C(=O)c1cccnc1)[C@H](C)CN([C@@H](C)CO)S2(=O)=O
At 26 µM (top of the series)
  activity change, negative = cytotoxicity: -38% (inactive)

## CCNC(=O)Nc1ccc2c(c1)C(=O)N(C)[C@H]1CC[C@H](CC(=O)Nc3ccccc3F)O[C@@H]1CO2
At 26 µM (top of the series)
  activity change, negative = cytotoxicity: 46.5% (inactive)

## Cc1ccc(S(=O)(=O)N(CC(=O)NCCSC2CCCCC2)c2ccccc2F)cc1
At 26 µM (top of the series)
  activity change, negative = cytotoxicity: 5.79% (inactive)

## C[C@H](CO)N1C[C@H](C)[C@@H](CN(C)C(=O)Nc2cccc3ccccc23)Oc2c(cccc2N(C)C)C1=O
At 26 µM (top of the series)
  activity change, negative = cytotoxicity: 49.5% (inactive)

## S=C(Nc1ccccc1)Nc1cc(Cl)ccc1Oc1ccccc1
At 26 µM (top of the series)
  activity change, negative = cytotoxicity: -0.976% (inactive)

## C[C@H]1CN([C@@H](C)CO)C(=O)c2cc(C#CC3(O)CCCC3)cnc2O[C@@H]1CN(C)Cc1cccnc1
At 26 µM (top of the series)
  activity change, negative = cytotoxicity: 13.8% (inactive)

## CC(C)NC(=O)Nc1ccc2c(c1)CC(=O)N([C@@H](C)CO)C[C@@H](C)[C@@H](CN(C)S(=O)(=O)c1ccc(Cl)cc1)O2
At 26 µM (top of the series)
  activity change, negative = cytotoxicity: 6.41% (inactive)

## COc1ccccc1NC(=O)N[C@H]1CC[C@@H](CCn2cc(-c3ccccc3OC)nn2)O[C@@H]1CO
At 26 µM (top of the series)
  activity change, negative = cytotoxicity: -9.57% (inactive)

## CCCC(=O)N1CCCC1(C)C(=O)Nc1ccc(C)c(C)c1 (stereo not given)
At 42 µM (top of the series)
  activity change, negative = cytotoxicity: -11.7% (inactive)

## C[C@H](CO)N1C[C@H](C)[C@@H](CN(C)C(=O)Nc2ccc3c(c2)OCO3)Oc2ccc(NS(=O)(=O)c3cccs3)cc2C1=O
At 26 µM (top of the series)
  activity change, negative = cytotoxicity: -1.88% (inactive)

## C[C@H]1CN([C@@H](C)CO)C(=O)Cc2cc(N(C)C)ccc2O[C@@H]1CN(C)C(=O)Nc1ccc(C(F)(F)F)cc1
At 26 µM (top of the series)
  activity change, negative = cytotoxicity: -28.9% (inactive)

## O=C(c1cc(Br)ccc1Cl)N1CCN(c2ccccn2)CC1
At 26 µM (top of the series)
  activity change, negative = cytotoxicity: -6.43% (inactive)

## C[C@@H]1CN([C@@H](C)CO)C(=O)c2cc(NC(=O)Nc3ccc(F)cc3)ccc2O[C@@H](C)CCCCO[C@H]1CN(C)S(=O)(=O)c1ccccc1
At 23.5 µM (top of the series)
  activity change, negative = cytotoxicity: 3.48% (inactive)

## CNC(=O)CN(c1ccc(OC)cc1)S(=O)(=O)c1ccc(F)cc1
At 26 µM (top of the series)
  activity change, negative = cytotoxicity: 31.6% (inactive)

## CN(C)C(=O)c1ccc(-c2ccc([C@H]3[C@H](CO)N4CCCCN(CCC(F)(F)F)C[C@@H]34)cc2)cc1
At 26 µM (top of the series)
  activity change, negative = cytotoxicity: -23.6% (inactive)

## C[C@@H]1CN([C@@H](C)CO)S(=O)(=O)c2ccc(C#Cc3ccc(F)cc3)cc2O[C@H]1CN(C)C(=O)NC1CCCC1
At 26 µM (top of the series)
  activity change, negative = cytotoxicity: 39.2% (inactive)

## CCNC(=O)C[C@H]1CC[C@@H](NC(=O)NC2CCCCC2)[C@H](CO)O1
At 26 µM (top of the series)
  activity change, negative = cytotoxicity: -2.42% (inactive)

## C[C@@H](O)C#Cc1ccc([C@@H]2[C@H](CO)N3CCCCN(CC4CC4)C[C@@H]23)cc1
At 26 µM (top of the series)
  activity change, negative = cytotoxicity: -28.3% (inactive)

## C[C@H]1CN([C@@H](C)CO)C(=O)Cc2cc(NS(C)(=O)=O)ccc2O[C@@H]1CN(C)Cc1ccc(Cl)c(Cl)c1
At 26 µM (top of the series)
  activity change, negative = cytotoxicity: 11.7% (inactive)

## COCC(=O)N(C)C[C@@H]1Oc2ncc(C#CCC3CCCC3)cc2C(=O)N([C@H](C)CO)C[C@H]1C
At 26 µM (top of the series)
  activity change, negative = cytotoxicity: 57.2% (inactive)

## CC(=O)NC[C@@H]1[C@@H](c2ccc(C3=CCCC3)cc2)[C@@H](CO)N1C(=O)NC(C)C
At 26 µM (top of the series)
  activity change, negative = cytotoxicity: 6.26% (inactive)

## Cc1noc(C)c1S(=O)(=O)Nc1ccc2c(c1)C(=O)N([C@@H](C)CO)C[C@@H](C)[C@@H](CN(C)Cc1ccccc1)OCCCC[C@H](C)O2
At 26 µM (top of the series)
  activity change, negative = cytotoxicity: -12.2% (inactive)

## COc1ccc(NC(=O)N(C)C[C@H]2OCCCC[C@@H](C)Oc3ccc(N(C)C)cc3C(=O)N([C@H](C)CO)C[C@H]2C)cc1
At 26 µM (top of the series)
  activity change, negative = cytotoxicity: -1% (inactive)

## COc1cccc(S(=O)(=O)Nc2ccc3c(c2)[C@H]2C[C@H](CC(=O)NCc4cccc(F)c4)O[C@@H](CO)[C@H]2O3)c1
At 23.5 µM (top of the series)
  activity change, negative = cytotoxicity: -22.3% (inactive)

## Cc1cc(C)c(NC(=O)C2CCC(=O)N2)c(C)c1 (stereo not given)
At 26 µM (top of the series)
  activity change, negative = cytotoxicity: 12.8% (inactive)

## C[C@@H]1CN([C@@H](C)CO)C(=O)CCCn2nncc2CO[C@H]1CN(C)C(=O)Oc1cccc2ccccc12
At 23.5 µM (top of the series)
  activity change, negative = cytotoxicity: 17.9% (inactive)

## C[C@@H]1CN([C@@H](C)CO)C(=O)c2cc(NC(=O)Nc3cccc4ccccc34)ccc2O[C@@H]1CN(C)C(=O)Nc1ccccc1
At 26 µM (top of the series)
  activity change, negative = cytotoxicity: 42.1% (inactive)

## COc1ccc(CN(C)C[C@H]2OCCCC[C@@H](C)Oc3ccc(NC(=O)c4ccccc4)cc3C(=O)N([C@H](C)CO)C[C@@H]2C)cc1
At 23.5 µM (top of the series)
  activity change, negative = cytotoxicity: -10.4% (inactive)

## Cc1ccc(C)c(NC(=O)C2(C)CCN2C(=O)C(C)C)c1 (stereo not given)
At 26 µM (top of the series)
  activity change, negative = cytotoxicity: -19.7% (inactive)

## CC(C)CC#Cc1cnc2c(c1)C(=O)N([C@H](C)CO)C[C@@H](C)[C@@H](CN(C)C(=O)c1ccc3c(c1)OCO3)O2
At 26 µM (top of the series)
  activity change, negative = cytotoxicity: 33.9% (inactive)

## C[C@H]1CN([C@@H](C)CO)C(=O)Cc2cc(NC(=O)C3CC3)ccc2O[C@@H]1CN(C)C(=O)Nc1cccc2ccccc12
At 23.5 µM (top of the series)
  activity change, negative = cytotoxicity: -3.99% (inactive)

## CCS(=O)(=O)N1CCCCN2[C@H](CO)[C@@H](c3ccc(-c4ccc(C#N)cc4)cc3)[C@@H]2C1
At 26 µM (top of the series)
  activity change, negative = cytotoxicity: 2.55% (inactive)

## O=C(NC1CCCCC1)N[C@H]1C=C[C@@H](CC(=O)N2CCOCC2)O[C@H]1CO
At 23.5 µM (top of the series)
  activity change, negative = cytotoxicity: 14.2% (inactive)
